Measured values: article PMC4774911, “Biochemical Screening of Five Protein Kinases from Plasmodium falciparum against 14,000 Cell-Active Compounds” (PLoS ONE, 2016)
Read-outs that look alike come from different tables or passages of the source.

Legend:
3D7 PFLDH [1] = system: 3D7 PFLDH; parameters: method as in F.J. Gamo et al., Nature 2010; settings: downloaded from ChEMBL ref F.J. Gamo et al., Nature 2010; cited from earlier work
P. falciparum 3D7 cells = settings: Nature 2010, cited from earlier work
[2] = biological target: T1, Plasmodium falciparum calcium-dependent protein kinase 1 (CDPK1) (Plasmodium falciparum, UniProt P62344); assay: CDPK1 Kinase-Glo ATP-consumption screen and dose-response; type: biochemical; settings: hits below 1 uM; read-out: CDPK1 IC50
T1 construct: 6-Histidine (N); made in house
T1 sequence (P62344 whole entry): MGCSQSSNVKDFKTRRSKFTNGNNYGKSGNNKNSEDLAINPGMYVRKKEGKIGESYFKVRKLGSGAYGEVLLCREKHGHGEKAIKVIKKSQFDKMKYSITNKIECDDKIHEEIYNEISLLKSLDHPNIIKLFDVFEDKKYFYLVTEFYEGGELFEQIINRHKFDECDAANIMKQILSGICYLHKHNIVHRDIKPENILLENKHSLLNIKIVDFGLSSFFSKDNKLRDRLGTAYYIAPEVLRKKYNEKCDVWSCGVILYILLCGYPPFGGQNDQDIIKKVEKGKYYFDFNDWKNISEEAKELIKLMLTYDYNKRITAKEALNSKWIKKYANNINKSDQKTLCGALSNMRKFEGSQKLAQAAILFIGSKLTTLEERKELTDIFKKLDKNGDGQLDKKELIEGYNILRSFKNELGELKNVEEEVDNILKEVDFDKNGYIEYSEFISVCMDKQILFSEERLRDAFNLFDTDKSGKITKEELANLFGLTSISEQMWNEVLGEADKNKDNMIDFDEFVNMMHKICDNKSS
Procedure: Biochemical assays were performed in white 384-well plates (Nunc). Liquid transfers were done manually with 8-channel pipets. Compounds were initially tested in a single-point screen (final concentration 1 μM). […] The catalytic activity of each kinase was considered proportional to ATP consumed, as determined from measurements of residual [ATP] with the luciferase-based reagent Kinase-Glo (Promega) following incubation. Luminescence (proportional to residual [ATP]) was measured on the plate readers FLx800 (BioTek Instruments, Winooski, VT, USA) and MicroBeta^2 (PerkinElmer, Waltham, MA, USA). Incubation times were chosen to ensure near-complete ATP depletion in the absence of inhibition, thus maximizing the difference in signal between inhibited and uninhibited wells.
40 μM Syntide-2 was used as a substrate; BKI-1 [14] was used as a control inhibitor, while reaction mixtures lacking Syntide-2 were included as an additional negative control. Incubation time was 90 minutes. Reactions were terminated by adding excess EGTA (5 mM), which sequesters Ca^2+ and halts calcium-dependent kinase activity.

DD2 [3] = system: DD2; parameters: method as in F.J. Gamo et al., Nature 2010; settings: P. falciparum Dd2; downloaded from ChEMBL ref F.J. Gamo et al., Nature 2010; cited from earlier work
HepG2 cells = settings: Nature 2010, cited from earlier work
3D7 PFLDH [4] = system: 3D7 PFLDH; parameters: method as in F.J. Gamo et al., Nature 2010; concentration or dose not given beside the values; settings: downloaded from ChEMBL, ref F.J. Gamo et al., Nature 2010; cited from earlier work
DD2 [5] = system: DD2; parameters: method as in F.J. Gamo et al., Nature 2010; settings: downloaded from ChEMBL, ref F.J. Gamo et al., Nature 2010; cited from earlier work
[6] = P. falciparum 3D7, downloaded from ChEMBL ref F.J. Gamo et al.
[7] = HepG2 cells, downloaded from ChEMBL ref F.J. Gamo et al.
[8] = 3D7, downloaded from ChEMBL, ref F.J. Gamo et al.
[9] = HepG2, downloaded from ChEMBL, ref F.J. Gamo et al.

IC50 [2] [nM] | SMILES | PCT_INHIB_3D7_PFLDH (3D7 PFLDH [1]) | PCT_IHB_3D7 (P. falciparum 3D7 cells; [6]) | pXC50_3D7 (P. falciparum 3D7 cells; [6]) | PCT_INHB_DD2 (DD2 [3]) | PCT_INHIB_HEPG2 (HepG2 cells; [7]) | PCT_IHB_3D7 (P. falciparum 3D7 cells; [8]) [%] | pXC50_3D7 (P. falciparum 3D7 cells; [8]) | PCT_INHIB_3D7_PFLDH (3D7 PFLDH [4]) [%] | PCT_INHB_DD2 (DD2 [5]) [%] | PCT_INHIB_HEPG2 (HepG2 cells; [9]) [%]
150 | Nc1ncc(-c2cn[nH]c2)cc1-c1nc2ccc(F)cc2[nH]1 [TCMDC-133559] | 0 | 100 | 6.137 | 53 | 38 | – | – | – | – | –
834 | Nc1ncc(-c2cn[nH]c2)cc1-c1nc2ccc(Cl)cc2[nH]1 [TCMDC-133560] | 0 | 100 | 6.098 | 100 | 46 | – | – | – | – | –
296 | Cc1cccc2[nH]c(-c3cc(-c4cn[nH]c4)cnc3N)nc12 [TCMDC-133561] | 0 | 100 | 6.6562 | 93 | 37 | – | – | – | – | –
280 | Nc1ncc(-c2cn[nH]c2)cc1-c1nc2cc(Cl)cnc2[nH]1 [TCMDC-133562] | 1 | 100 | 6.039 | 70 | 40 | – | – | – | – | –
654 | CCn1c(-c2nc(-c3ccnc(N4CCN(C)CC4)c3)cnc2N)nc2cc(S(C)(=O)=O)ccc21 [TCMDC-134155] | 0 | 100 | 6.089 | 76 | 44 | – | – | – | – | –
145 | CCNC(=O)Nc1ccc(-c2cnc(N)c(-c3nc4ccc(OC)cc4[nH]3)c2)cc1 [TCMDC-135321] | 1 | 100 | 6.302 | 43 | 51 | – | – | – | – | –
501 | COc1ccc2nc(-c3cc(-c4ccc(NC(C)=O)cc4)cnc3N)[nH]c2c1 [TCMDC-135365] | 0 | 93 | 5.906 | 73 | 55 | – | – | – | – | –
87 | COc1cccc(Nc2nccc(-c3c(-c4cccc(NC(=O)c5c(F)cccc5F)c4)nn4ccccc34)n2)c1 [TCMDC-135508] | 0 | 98 | 6.749 | 98 | 35 | – | – | – | – | –
11 | CS(=O)(=O)Cc1ccc(Nc2nccc(-c3c(-c4cccc(NC(=O)c5c(F)cccc5F)c4)nn4ncccc34)n2)cc1 [TCMDC-135681] | 1 | 97 | 6.79 | 93 | 86 | – | – | – | – | –
336 | CCCN1CCN(CCNC(=O)c2cccc(Nc3nccc(Nc4ccc(Oc5ccccc5)cc4)n3)c2)CC1 [TCMDC-138606] | – | – | – | – | – | 99 | 6.622 | 0 | 96 | 56
220 | O=C(NCCN1CCC(c2ccncc2)CC1)c1cccc(Nc2nccc(Nc3ccc(Oc4ccccc4)cc3)n2)c1 [TCMDC-138607] | – | – | – | – | – | 100 | 6.773 | 0 | 91 | 60
103 | O=C(NCCN1CCCCC1)c1ccc(Nc2nccc(Nc3ccc(Oc4ccccc4)cc3)n2)cc1 [TCMDC-138608] | – | – | – | – | – | 100 | 6.257 | 0 | 91 | 58
94 | O=C(NCCCN1CCCCC1)c1ccc(Nc2nccc(Nc3ccc(Oc4ccccc4)cc3)n2)cc1 [TCMDC-138609] | – | – | – | – | – | 100 | 6.204 | 0 | 61 | 30
135 | O=C(NCCN1CCC(c2ccncc2)CC1)c1ccc(Nc2nccc(Nc3ccc(Oc4ccccc4)cc3)n2)cc1 [TCMDC-138610] | – | – | – | – | – | 100 | 6.14 | 1 | 90 | 17
801 | CN1CCN(Cc2cccc(Nc3nccc(Nc4ccc(Oc5ccccc5)cc4)n3)c2)CC1 [TCMDC-138614] | – | – | – | – | – | 97 | 6.529 | 2 | 80 | 30
261 | CN1CCN(CCCNCc2cccc(Nc3nccc(Nc4ccc(Oc5ccccc5)cc4)n3)c2)CC1 [TCMDC-138616] | – | – | – | – | – | 100 | 6.117 | 0 | 80 | 97
139 | CN1CCN(CCCNCc2ccc(Nc3nccc(Nc4ccc(Oc5ccccc5)cc4)n3)cc2)CC1 [TCMDC-138621] | – | – | – | – | – | 100 | 6.197 | 0 | 9 | 17
975 | Cl.Oc1cc(-c2nc(-c3ccccc3)[nH]c2-c2ccncc2)ccc1Cl [TCMDC-139660] | 0 | 96 | 6.089 | 91 | 64 | – | – | – | – | –
190 | CC(C)(CNCc1ccccc1)c1nc(-c2ccc(Cl)c(O)c2)c(-c2ccncc2)[nH]1.Cl [TCMDC-140389] | 0 | 100 | 6.27 | 99 | 77 | – | – | – | – | –
186 | COc1ccc(CNCC(C)(C)c2nc(-c3ccc(Cl)c(O)c3)c(-c3ccncc3)[nH]2)cc1.Cl [TCMDC-140538] | 1 | 100 | 6.447 | 99 | 76 | – | – | – | – | –
257 | CC(C)(CNCc1ccc(Cl)cc1)c1nc(-c2ccc(Cl)c(O)c2)c(-c2ccncc2)[nH]1.Cl [TCMDC-140548] | 5 | 100 | 6.322 | 98 | 86 | – | – | – | – | –
451 | CC(C)(CNCc1ccc(F)c(F)c1)c1nc(-c2ccc(Cl)c(O)c2)c(-c2ccncc2)[nH]1.Cl [TCMDC-140672] | 2 | 100 | 6.181 | 89 | 74 | – | – | – | – | –
159 | COc1cc(-c2nc(C(C)(C)CN)[nH]c2-c2ccncc2)ccc1Br.Cl [TCMDC-140674] | 1 | 97 | 6.114 | 95 | 17 | – | – | – | – | –
144 | CC(C)(NCc1ncc[nH]1)c1nc(-c2ccc(Cl)c(O)c2)c(-c2ccncc2)[nH]1.Cl [TCMDC-140686] | 3 | 95 | – | 97 | 42 | – | – | – | – | –
275 | COc1cccc(CNCC(C)(C)c2nc(-c3ccc(Cl)c(O)c3)c(-c3ccncc3)[nH]2)c1.Cl [TCMDC-140687] | 0 | 100 | 6.159 | 98 | 74 | – | – | – | – | –
114 | Cn1c(Nc2cc(C(C)(C)C)on2)nc2cc(Nc3ccnc(Nc4cccc(CS(C)(=O)=O)c4)n3)ccc21 [TCMDC-141893] | – | – | – | – | – | 99 | 6.243 | 0 | 94 | 63

SMILES | IC50 [2] [nM] | PCT_INHIB_3D7_PFLDH (3D7 PFLDH [1]) | PCT_IHB_3D7 (P. falciparum 3D7 cells; [6]) | pXC50_3D7 (P. falciparum 3D7 cells; [6]) | PCT_INHB_DD2 (DD2 [3]) | PCT_INHIB_HEPG2 (HepG2 cells; [7]) | PCT_IHB_3D7 (P. falciparum 3D7 cells; [8]) [%] | pXC50_3D7 (P. falciparum 3D7 cells; [8]) | PCT_INHIB_3D7_PFLDH (3D7 PFLDH [4]) [%] | PCT_INHB_DD2 (DD2 [5]) [%] | PCT_INHIB_HEPG2 (HepG2 cells; [9]) [%]
CCn1c(-c2nonc2N)nc2c(-c3cccc(NC(=O)Nc4ccc(Cl)cc4)c3)ncc(OCCCN)c21.O=C(O)C(F)(F)F [TCMDC-136152] | 44 | 0 | 96 | 6.082 | 72 | 26 | – | – | – | – | –
Cc1ccc(Nc2nc3cc(N(C)c4ccnc(Nc5cccc(CCS(C)(=O)=O)c5)n4)ccc3n2C)cc1.O=C(O)C(F)(F)F [TCMDC-138853] | 160 | – | – | – | – | – | 99 | 6.469 | 4 | 73 | 78
Cc1ccc(Nc2nccc(N(C)c3ccc4c(c3)nc(NC(=O)Cc3ccc(Cl)c(Cl)c3)n4C)n2)cc1S(N)(=O)=O.O=C(O)C(F)(F)F [TCMDC-141965] | 345 | – | – | – | – | – | 94 | 5.954 | 0 | 60 | 71
